Test results reported in patent publication US8314082B2, “Stilbene derivatives for ADP-ribosyl cyclase inhibitors” (Industrial Cooperation Foundation Chonbuk National …, priority 2006, dated 2012).

Legend:
[1] = test system: 2 kidney 1 clip hypertensive rat model; test: Systolic blood pressure in 2 kidney 1 clip hypertensive rat model; format: in vivo, Sprague-Dawley male rats; conditions: intraperitoneal 428 μg/200 g/d, from day 7 after surgery for 7 weeks, tail plethysmography
Method: Renovascular hypertension was produced by 2KlC Sprague-Dawley male rats (7-9 weeks old) weighing 200 to 220-g were anesthetized with ketamine (100 mg/kg, intra-peritoneally) and rumpen (5 mg/kg, intraperitoneally). The left kidney was exposed through the median abdominal incision, and the renal artery was separated from the renal vein with caution. Then, a silver clip with 0.15 mm slit was placed around the renal artery. The sham procedure was performed, including the entire surgery with the exception of arterial clipping. To examine the effect of 2,2′-DHAB in the 2KlC model, we administered it at days 7 after the surgery for 7 weeks. 2,2′-DHAB was injected intraperitoneally with 58% DMSO plus saline at a dose of 1.5 μl/g body weight (428 μg/200 g/d). Sham group and control 2KlC received DMSO plus saline treatment. The dose of injected DMSO had no side effect on blood pressure (BP) or any other parameters. Systolic blood pressure was measured by a method using tail plethysmography in conscious rats once a week, from the day prior to surgery until the day of sacrifice.

[2] = test system: ADPR-cyclase purified partially from rat spleen; test: ADPR-cyclase activity assay, spleen enzyme; format: biochemical; design: dose or concentration left out as unconfirmed
Method: (§1) FIGS. 1A and 1B show the inhibition of rat kidney ADPR-cyclase that was incubated with […] NGD^+ or e-NAD^+ in the presence of various concentrations of 4,4′-dihydrioxyazobenzene (DHAB) at 37° C. for 10 min and effects of DHAB on human CD38, rat brain, heart, spleen, and kidney ADPR-cyclase. FIGS. 1A and 1B are referred to as FIG. 1 herein.
Specific ADPR-cyclase activity was determined by measuring cyclic GDP-ribose (cGDPR) or etheno-ADP-ribose (e-cADPR) fluorometrically using NGD^+ or e-NAD^+ as a substrate [Greaff et al., Biochem. J. (2002)361:379-84]. Samples were incubated in the presence […] NGD^+ or e-NAD^+ with and without an appropriate agent in an assay buffer (25 mM HEPES, pH 7.4, 100 mM NaCl, and 0.1% Triton X-100) in a […]. The reaction mixture was incubated at 37° C. for 10 min. The reaction was stopped by adding […] trichloroacetic acid (10%). […] Fluorescence of cGDPR or e-ADPR in the solution was determined at excitation/emission wavelengths of 297/410 nm (HITACHI F-2000 fluorescence spectrophotometer). cADPR-hydrolase activity was determined by incubating cADPR with ADPR-cyclase or CD38 at 37° C. for 20 min. Hydrolysis of cADPR was analyzed by high performance liquid chromatography as described (White et al., 2000). […]

[3] = test system: rat kidney ADPR-cyclase; test: ADPR-cyclase activity assay (cGDPR / e-ADPR fluorescence from NGD+ or e-NAD+); format: biochemical; conditions: various concentrations
Method: as §1
Specific ADPR-cyclase activity was determined by measuring cyclic GDP-ribose (cGDPR) or etheno-ADP-ribose (e-cADPR) fluorometrically using NGD^+ or e-NAD^+ as a substrate [Greaff et al., Biochem. J. (2002)361:379-84]. Samples were incubated in the presence of […] NGD^+ or e-NAD^+ with and without an appropriate agent in an assay buffer (25 mM HEPES, pH 7.4, 100 mM NaCl, and 0.1% Triton X-100) in a […]. The reaction mixture was incubated at 37° C. for 10 min. The reaction was stopped by adding […] trichloroacetic acid (10%). […] Fluorescence of cGDPR or e-ADPR in the solution was determined at excitation/emission wavelengths of 297/410 nm (HITACHI F-2000 fluorescence spectrophotometer). cADPR-hydrolase activity was determined by incubating cADPR with ADPR-cyclase or CD38 at 37° C. for 20 min. Hydrolysis of cADPR was analyzed by high performance liquid chromatography as described (White et al., 2000). […]

[4] = test system: STZ diabetic mice; test: Diabetic nephropathy in STZ diabetes mouse model; format: in vivo; conditions: 45 μg/kg i.p. once a day for 6 weeks, mean SE, n = 6
Method: Male mice, weighing 20 25 g, were made diabetic by a single intravenous injection of STZ (65 mg/kg body weight) in 0.05 M citrate buffer (pH 4.8). At the same day, the control mice were injected with the citrate buffer. After 2 days, induction of diabetes was confirmed by tail blood glucose level measurement by using the LifeScan One Touch glucometer (Johnson & Johnson). The diabetic mice (>16 mM blood glucose) were randomly divided into two groups; 6 mice per group treated with vehicle (0.1% DMSO in saline, 100 μl) or DHAB (45 μg/kg body weight in 0.1% DMSO in saline, 100 μl) and resveratrol (45 μg/kg body weight in 0.1% DMSO in saline, 100 μl) administered by intraperitoneal injection once a day for 6 weeks. The control mice were 6 mice per group treated with the vehicle. On day 39, the mice were detained in individual metabolic cages for 24 h for urine collection. On day 42, the mice were anesthetized with diethyl ether, and blood samples were taken from the abdominal aorta. Bilateral kidneys were rapidly removed and weighed. Urine was gravimetrically collected, and urinary albumin concentrations were determined with an enzyme-linked immunosorbent assay using a murine microalbuminuria kit (Albuwell; Exocell, Philadelphia, Pa.). Urine and serum creatinine levels were measured using the QuantiChrom Creatinine Assay Kit (BioAssay Systems, Hayward, Calif.), following the manufacturer's protocol.

| Compound | effect on elevation of systolic blood pressure [1] | sensitivity of enzyme activity to compound [2] | inhibition of generation of cGDPR and e-ADPR from NGD+ and e-NAD+ [3] | Urine output ([4]; 24 h metabolic cage) [mL/day] | Body Weight [4] [g] | Food intake [4] [g] | Plasma glucose [4] [mg/dL] | Urinary Albumin [4] [µg/day] | Water intake [4] [mL] |
| --- | --- | --- | --- | --- | --- | --- | --- | --- | --- |
| Oc1ccccc1/N=N/c1ccccc1O [2,2′-DHAB, 2,2′-Dihydroxyazobenzene] | prevented the elevation of blood pressure |  |  |  |  |  |  |  |  |
| Oc1ccc(N=Nc2ccc(O)cc2)cc1 [4,4′-DHAB, 4,4′-Dihydroxyazobenzene] |  | insensitive | concentration-dependent | 2.27 ± 1.80 | 22.1 ± 0.58 | 2.27 ± 0.61 | 342 ± 36.1 | 4.01 ± 3.61 | 2.00 ± 1.73 |
